Source: US6855713B2, “Benzimidazole derivatives, a process for their manufacture and use as a medicine” (Boehringer Ingelheim Pharma KG, priority 2001, dated 2005)
Where two headings read alike, the source gives them in different places.

Target: T1, rh beta trypsin (Homo sapiens, UniProt P20231)
T1 construct: purchased Promega
Assay: Trypsin (tryptase) inhibition, cleavage of N-p-Gly-Pro-Lys-para-nitroaniline measured at 405 nm
Format: biochemical
Description: The compounds of the invention are notable for their effective trypsin-inhibiting property. The said capacity to inhibit trypsin activity was determined in accordance with the following trial descriptions.
The determinations are carried out in tris-HCl buffer (100 mM), that also contained calcium (5 mM) and heparin ([…]), at a pH of 7.4. As the standard, rh beta trypsin is used, this is commercially obtainable, for example, from Promega. A suitable substrate is N-p-Gly-Pro-Lys-para-nitroaniline in a concentration of 0.6 mM. The substrate is digested with trypsin, whereby p-nitro-aniline is obtained that can be measured at 405 nm. Normally, an incubation period of 5 minutes and an incubation temperature of 37° C. is chosen. For the enzyme activity, 0.91 U/ml are used. The determination is carriedout in an auto-analyser (Cobas Bio) from the firm Hoffmann LaRoche. The potential inhibitor substances are used in the screening procedure in concentrations of 10 μM, and the inhibition of the trypsin is given in percentages. At an inhibition in excess of 70%, the IC50 is determined (the concentration at which 50% of the enzyme activity is inhibited). After a 5-minute pre-incubation of the potential inhibiting substance, the substrate is added for the start of the reaction, whereby the production of p-nitro-aniline is taken, after 5 minutes, after testing the linearity, as a measure of the enzyme activity.

[1] = in vitro, tris-HCl buffer pH 7.4 with calcium and heparin, substrate 0.6 mM, 5 minutes, 37° C., read-out: Trypsin-inhibiting property

T1 sequence (P20231 31-275): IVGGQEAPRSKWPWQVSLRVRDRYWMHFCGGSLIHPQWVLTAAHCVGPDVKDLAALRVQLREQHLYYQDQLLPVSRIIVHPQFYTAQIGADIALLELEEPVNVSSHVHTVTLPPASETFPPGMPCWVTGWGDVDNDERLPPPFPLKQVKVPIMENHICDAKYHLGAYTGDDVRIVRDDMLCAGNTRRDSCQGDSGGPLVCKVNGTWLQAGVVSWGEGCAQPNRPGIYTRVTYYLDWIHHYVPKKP

SMILES | IC50 [1] | IC50 (in vitro tests on the pro-drugs of formula IIA, read-out: IC50)
Cn1c(CCc2ccc(C(=N)N)cc2)nc2cc(C(=O)N3CCC(NC(=O)c4cccc(Cl)c4Cl)CC3)ccc21 [Example 49, 2-[2-(4-Amidinophenyl)-ethyl]-1-methyl-benzimidazole-5-yl-carboxylic acid-[4-(2,3-dichloro)-benzamidopiperidinyl)-amide] | 1 to 20 nM | 
CN(C(=O)Nc1cccc(Cl)c1Cl)C1CCN(C(=O)c2ccc3c(c2)nc(CCc2ccc(C(=N)N)cc2)n3C)CC1 [Example 55, 2-[2-(4-Amidinophenyl)-ethyl]-1-methyl-benzimidazole-5-yl-carboxylic acid-{4-[3-(2,3-dichloro)-phenyl-1-methyl-ureido]piperidinyl)-amide] | 1 to 20 nM | 
Cn1c(CCc2ccc(C(=N)N)cc2)nc2cc(C(=O)N3CCC(NC(=O)NC4CCCCC4)CC3)ccc21 [Example 40, 4-(2-{5-[4-(3-Cyclohexyl-ureido)-piperidine-1-carbonyl]-1-methyl-1H-benzimidazole-2-yl}-ethyl)-benzamidine] | 1 to 20 nM | 
Cn1c(CCc2ccc(C(=N)N)cc2)nc2cc(C(=O)N3CCC(NC(=O)Nc4cccc(Cl)c4)CC3)ccc21 [Example 60, 2-[2-(4-Amidinophenyl)-ethyl]-1-methyl-benzimidazole-5-yl-carboxylic acid-{4-[3-(3-chloro)-phenylureido]piperidinyl}-amide] | 0.1 to 1 nM | 
Cn1c(CCc2ccc(C(=N)N)cc2)nc2cc(C(=O)N3CCC(NC(=O)Nc4ccc(F)cc4F)CC3)ccc21 [Example 33, 4-[2-(5-{4-[3-(2,4-Difluoro-phenyl)-ureido]-piperidine-1-carbonyl}-1-methyl-1H-benzimidazole-2-yl)-ethyl]-benzamidine] | 1 to 20 nM | 
Cn1c(CCc2ccc(CN)cc2)nc2cc(C(=O)N3CCC(NC(=O)c4ccccc4)CC3)ccc21 [Example 15, 2-[2-(4-Aminomethylphenyl)-ethyl]-1-methyl-benzimidazole-5-yl-carboxylic acid-(4-benzamido-piperidinyl)-amide] | 1 to 20 nM | 
Cn1c(CCc2ccc(C(=N)N)cc2)nc2cc(C(=O)N3CCC(NC(=O)c4ccccc4O)CC3)ccc21 [Example 46, 2-[2-(4-Amidinophenyl)-ethyl]-1-methyl-benzimidazole-5-yl-carboxylic acid-[4-(2-hydroxy)-benzamidopiperidinyl)-amide] | 1 to 20 nM | 
Cn1c(CCc2ccc(C(=N)N)cc2)nc2cc(C(=O)N3CCC(NC(=O)Nc4cccc(F)c4)CC3)ccc21 [Example 26, 4-[2-(5-{4-[3-(3-Fluoro-phenyl)-ureido]-piperidine-1-carbonyl}-1-methyl-1H-benzimidazole-2-yl)-ethyl]-benzamidine] | 1 to 20 nM | 
COc1cccc(NC(=O)NC2CCN(C(=O)c3ccc4c(c3)nc(CCc3ccc(C(=N)N)cc3)n4C)CC2)c1 [Example 28, 4-[2-(5-{4-[3-(3-Methoxy-phenyl)-ureido]-piperidine-1-carbonyl}-1-methyl-1H-benzimidazole-2-yl)-ethyl]-benzamidine] | 0.1 to 1 nM | 
Cn1c(CCc2ccc(C(=N)N)cc2)nc2cc(C(=O)N3CCC(NC(=O)c4cc(Cl)ccc4Cl)CC3)ccc21 [Example 64] | 0.1 to 1 nM | 
Cn1c(CCc2ccc(C(=N)N)cc2)nc2cc(C(=O)N3CCC(NC(=O)Nc4cccc(C(F)(F)F)c4)CC3)ccc21 [Example 32, 4-[2-(1-Methyl-5-{4-[3-(3-trifluoromethyl-phenyl)-ureido]-piperidine-1-carbonyl}-1H-benzimidazole-2-yl)-ethyl]-benzamidine] | 1 to 20 nM | 
Cn1c(CCc2ccc(C(=N)N)cc2)nc2cc(C(=O)N3CCC(NC(=O)c4cccc(Br)c4)CC3)ccc21 [Example 45, 2-[2-(4-Amidinophenyl)-ethyl]-1-methyl-benzimidazole-5-yl-carboxylic acid-[4-(3-bromo)-benzamidopiperidinyl)-amide] | 0.1 to 1 nM | 
CCOC(=O)N=C(N)c1ccc(CCc2nc3cc(C(=O)N4CCC(NC(=O)c5ccccc5)CC4)ccc3n2C)cc1 [IIA6] |  | 2490 nM
Cn1c(CCc2ccc(C(=N)N)cc2)nc2cc(C(=O)N3CCC(NC(=O)Nc4c(F)cccc4F)CC3)ccc21 [Example 38, 4-[2-(5-{4-[3-(2,6-Difluoro-phenyl)-ureido]-piperidine-1-carbonyl}-1-methyl-1H-benzimidazole-2-yl)-ethyl] -benzamidine] | 1 to 20 nM | 
Cn1c(CCc2ccc(C(=N)N)cc2)nc2cc(C(=O)N3CCC(NC(=O)c4cccc(Cl)c4Cl)CC3)ccc21 [Example 67] | 0.1 to 1 nM | 
Cn1c(CCc2ccc(C(=N)N)cc2)nc2cc(C(=O)N3CCC(NC(=O)Nc4cccc(C(=O)O)c4)CC3)ccc21 [Example 62, [2-(4-Amidinophenyl)-ethyl]-1-methyl-benzimidazole-5-yl-carboxylic acid-{4-[3-(3-carboxyphenyl)-ureido]-piperidinyl}-amide] | 1 to 20 nM | 
Cn1c(CCc2ccc(C(=N)N)cc2)nc2cc(C(=O)N3CCC(NC(=O)Nc4cccc(Br)c4)CC3)ccc21 [Example 43, 4-[2-(5-{4-[3-(3-Bromo-phenyl)-ureido]-piperidine-1-carbonyl}-1-methyl-1H-benzimidazole-2-yl)-ethyl]-benzamidine] | 0.1 to 1 nM | 
Cn1c(CCc2ccc(C(=N)N)cc2)nc2cc(C(=O)N3CCC(NC(=O)Nc4ccccc4F)CC3)ccc21 [Example 27, 4-[2-(5-{4-[3-(2-Fluoro-phenyl)-ureido]-piperidine-1-carbonyl}-1-methyl-1H-benzimidazole-2-yl)-ethyl]-benzamidine] | 0.1 to 1 nM | 
Cn1c(CCc2ccc(C(=N)N)cc2)nc2cc(C(=O)N3CCC(NC(=O)Nc4ccc(F)cc4)CC3)ccc21 [Example 42, 4-[2-(5-{4-[3-(4-Fluoro-phenyl)-ureido]-piperidine-1-carbonyl}-1-methyl-1H-benzimidazole-2-yl)-ethyl]-benzamidine] | 1 to 20 nM | 
CN(C(=O)c1ccccc1)C1CCN(C(=O)c2ccc3c(c2)nc(CCc2ccc(C(=N)N)cc2)n3C)CC1 [Example 53, 2-[2-(4-Amidinophenyl)-ethyl]-1-methyl-benzimidazole-5-yl-carbooxylic acid-[4-(N-methyl)benzamidopiperidinyl]-amide] | 1 to 20 nM | 
Cn1c(CCc2ccc(C(=N)N)cc2)nc2cc(C(=O)N3CCC(NC(=O)Nc4ccccc4Br)CC3)ccc21 [Example 37, 4-[2-(5-{4-[3-(2-Bromo-phenyl)-ureido]-piperidine-1-carbonyl}-1-methyl-1H-benzimidazole-2-yl)-ethyl]-benzamidine] | 0.1 to 1 nM | 
COC(=O)c1cccc(NC(=O)NC2CCN(C(=O)c3ccc4c(c3)nc(CCc3ccc(C(=N)N)cc3)n4C)CC2)c1 [Example 57, 2-[2-(4-Amidinophenyl)-ethyl]-1-methyl-benzimidazole-5-yl-carboxylic acid-{4-[3-(3-methoxycarbonyl)phenylureido]piperidinyl}-amide] | 1 to 20 nM | 
